Source: the COVID Moonshot data (paper PMC11187573), “Identification of SARS-CoV-2 Mpro inhibitors through deep reinforcement learning for de novo drug design and computational chemistry approaches” (RSC Medicinal Chemistry, 2024)

Legend:
trypsin = trypsin (UniProt P07477)
[1] = biological target: SARS-CoV-2 Main Protease (SARS-CoV-2) (UniProt P0DTD1)
[2] = biological target: SARS-CoV-2 Main Protease (SARS-CoV-2) (UniProt P0DTD1); remark: listed apart in the source

Chain of trypsin (P07477 whole entry, looked up): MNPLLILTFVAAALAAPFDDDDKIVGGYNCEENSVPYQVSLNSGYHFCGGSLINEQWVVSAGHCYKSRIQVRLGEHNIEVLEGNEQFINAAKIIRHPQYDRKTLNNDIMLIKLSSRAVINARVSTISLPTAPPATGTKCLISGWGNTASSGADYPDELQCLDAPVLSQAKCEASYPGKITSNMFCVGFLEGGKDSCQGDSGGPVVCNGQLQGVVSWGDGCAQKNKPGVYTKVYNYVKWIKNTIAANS

| Structure (SMILES) | relative solubility at 20 uM | relative solubility at 100 uM | IC50 (trypsin) [µM] | inhibition ([1]; 20.0 µM) [%] | inhibition ([1]; 50.0 µM) [%] | IC50 [2] [µM] | inhibition ([2]; 50.0 µM) [%] | inhibition ([2]; 20.0 µM) [%] |
| --- | --- | --- | --- | --- | --- | --- | --- | --- |
| O=C(CCl)N1CCN(Cc2cc(Cl)ccc2CNC(=O)N2CCOCC2)CC1 | 0.98 | 0.94 | 15.8 | 77.2 | 79 | 5.55 | 93.3 | – |
| C=CC(=O)N(c1ccc(C(C)(C)C)cc1)C(C(=O)Nc1ccc2c(c1)OCO2)c1cccnc1 (stereo not drawn) | – | – | 72.5 | 41.1 | 60.4 | 62.1 | 100 | – |
| C=CC(=O)N(c1ccc(C2(C)CC2)cc1)C(C(=O)Nc1ccc(Br)cc1)c1cccnc1 (stereo not drawn) | 1 | 1.01 | 58.2 | – | 47.1 | 19.4 | 67.8 | 2.51 |
| COc1cc(CN2CCN(C(=O)CCl)CC2)c2ccccc2c1 | 1 | 0.95 | 81.7 | 82.8 | 90.9 | 1.62 | 100 | – |
| NC(=O)C1Cc2ccccc2N(CC(=O)Nc2cnccn2)C1 (stereo not drawn) | 1 | 0.93 | – | 0.0292 | 6.19 | – | 0 | 0 |
| CC(=O)N1CCN(S(=O)(=O)C2=CC[SH]=C2)CC1 | 0.99 | 1 | – | – | -20.6 | – | 3.62 | 0 |
| Cc1cc(Br)cc2c1N(CCBr)C(=O)C2=O | 1 | 1 | – | -3.94 | -4.22 | 16.7 | 95.6 | – |
| NS(=O)(=O)c1ccc(N2CCC(Nc3ccccc3)CC2)cc1 | 1 | 1 | – | – | 9.57 | – | 22 | 27.2 |
| C#Cc1cccc(N(C(=O)C=C)C(C(=O)NC(C)(C)C)c2cccnc2)c1 (stereo not drawn) | 1 | 1.01 | – | -3.84 | 3.7 | – | – | 0 |
| O=C(Nc1ccc(N(Cc2ccsc2)C(=O)Cn2nnc3ccccc32)cc1)C1CC1 | 0.9 | 0.59 | – | 69 | 70.2 | 28.4 | 62.2 | – |
| COc1ccc(N2CCN(C(=O)c3cc(=O)[nH]c4ccccc34)CC2)cc1 | 1 | 1 | – | 61.4 | 81.7 | 95.7 | 51.4 | – |
| C=CC(=O)N(c1ccc(S(F)(F)(F)(F)F)cc1)C(C(=O)NC(C)(C)C)c1cccnc1 (stereo not drawn) | 0.98 | 0.9 | – | 11.1 | 23 | – | – | 6.54 |
| Cc1ccnc(C)c1NC(=O)C(C)c1ccc(F)c(F)c1 (stereo not drawn) | 1 | 1 | – | -0.411 | -2.87 | – | 0 | – |
| C=CC(=O)N(c1ccc(C(C)(C)C)cc1)C(C(=O)NC(C)(C)C)c1cnccc1C (stereo not drawn) | 0.99 | 1 | – | -14 | -12.5 | – | 0 | 0 |
| C=CC(=O)N(c1ccc(SC)cc1)C(C(=O)Nc1ccc(OC)cc1C)c1cccnc1 (stereo not drawn) | 0.95 | 0.84 | – | 8.27 | 22.2 | – | – | 0 |
| CC(=O)Nc1ccc(C#N)cc1CN1CCN(C(=O)CCl)CC1 | 1 | 1.01 | – | 20.6 | 43.4 | 17.5 | – | 59.2 |
| Cc1ncc2c(n1)CCC(NC(=O)NCc1cccc(N3C(=O)NC4(CCCC4)C3=O)c1)C2 (stereo not drawn) | 0.99 | 0.97 | – | -7.81 | -6.65 | – | 0 | – |
| O=C(Cc1cc(Cl)c2c(c1)OCCO2)Nc1cnccc1-c1ccccc1 | 0.88 | 0.94 | – | -45.1 | -10.4 | – | 0 | – |
| O=C(Cc1c[nH]c2ncccc12)NCc1cccc(Cl)c1 | 1 | 0.96 | – | 7.73 | 9.03 | – | – | 1.98 |
| Cc1ccncc1NC(=O)[C@@H]1CNC(=O)O1 (stereo in doubt) | 1 | 1 | – | 1.35 | 1.36 | – | 8.86 | – |
| COc1cc(CNC(=O)Cc2ncc[nH]2)c2ccccc2n1 | 1 | 1 | – | – | -23.1 | – | 15.6 | 0 |
| C=CC(=O)N(c1ccc(C(C)(C)C)cc1)C(C(=O)NCc1ccccc1)c1cccnc1 (stereo not drawn) | 0.99 | 0.89 | – | 42.3 | 66.6 | 14.3 | 100 | 69.1 |
| C=CC(=O)N(c1cc(C(C)(C)C)on1)C(C(=O)NCCc1cccc(F)c1)c1cncc(C)c1 (stereo not drawn) | 1 | 0.91 | – | 17.5 | 24.8 | – | 0 | – |

| Structure (SMILES) | relative solubility at 20 uM | relative solubility at 100 uM | IC50 (trypsin) [µM] | inhibition ([1]; 20.0 µM) [%] | inhibition ([1]; 50.0 µM) [%] | IC50 [2] [µM] | inhibition ([2]; 50.0 µM) [%] | inhibition ([2]; 20.0 µM) [%] |
| --- | --- | --- | --- | --- | --- | --- | --- | --- |
| N#Cc1ccc(Nc2ccc(NC(=O)Nc3cccnc3)cc2)nc1 | 1 | 0.91 | – | -1.31 | -3.7 | – | 0 | 0 |
| CCCNC(=O)C(C)NC(=O)N(C)Cc1csc(C)n1 (stereo not drawn) | 1 | 1 | – | 0.814 | -2.74 | – | – | 0 |
| CCc1nnnn1-c1ccccc1NC(=O)C1(c2cncc(Br)c2)CC1 | 1 | 1 | – | – | 10.2 | – | 0 | 0 |
| O=S(=O)(Cc1ccc(F)cc1)Nc1cccnc1 | 1 | 1 | – | 6.67 | -13.8 | – | -5.13 | – |
| O=C(NCCN1CCN(c2ccccc2)CC1)NCc1ccccn1 | 0.99 | 0.99 | – | – | 12.5 | – | 0 | 0 |
| N#CCN1CCN(Cc2cc(Cl)cc3ccccc23)CC1 | 0.91 | 0.92 | – | – | 5.55 | – | 10.2 | 10.4 |
| Cc1ccncc1NC(=O)Nc1ccccc1 | 1 | 1 | – | – | 21.1 | – | -0.18 | 0 |
| Cc1ccncc1NC(=O)C(C)c1cccc(Cl)c1 (stereo not drawn) | 1 | 1 | – | 58 | 78.7 | 13 | – | 20.4 |
| N#Cc1ccccc1S(=O)(=O)N1CCN(C(=O)c2cc(=O)[nH]c3cc(F)ccc23)CC1 | 0.94 | 0.95 | – | 1.1 | 52.4 | – | 0 | – |
| Cc1ccncc1NC(=O)Cc1cccc(CO)c1 | 1 | 1 | – | 2.87 | 6.05 | – | 1.14 | – |
| NS(=O)(=O)c1ccc(N2CCC(CO)CC2)cc1 | 1 | 1 | – | 3.95 | 7.03 | – | 2.83 | -1.13 |
| O=C(NCCNc1ccnc2cc(Cl)ccc12)Nc1ccc(F)cc1 | 0.99 | 0.94 | – | 20.4 | 29.5 | – | 0 | 0 |
| C=CC(=O)N(C1CCC2(CCCC2)CC1)C(C(=O)NC(C)(C)C)c1cccnc1 (stereo not drawn) | 1 | 0.97 | – | -5.6 | 6.94 | – | – | 0 |
| O=C(c1cc(=O)[nH]c2cc(F)ccc12)N1CCN(S(=O)(=O)c2ccccc2)CC1 | 0.98 | 0.99 | – | 12.6 | 30.7 | – | 0 | – |
| O=C(CCl)N1CCN(S(=O)(=O)c2c(F)cccc2F)CC1 | 0.96 | 0.88 | – | 98.7 | 104 | 2.62 | 99.2 | 98.6 |
| O=C(NCc1ccccc1OCCO)C(=O)N[C@H]1C[C@H]1C1CCOCC1 (stereo in doubt) | 1.01 | 1 | – | 1.34 | -9.81 | – | 0 | – |
| N#Cc1cccc(CNc2ccc(O)cc2)c1 | 1 | 1 | – | 9.73 | 2.32 | – | 22.7 | 19.8 |
| O=C(CCl)N1CCCc2cc(NCc3ccc(F)cc3Cl)ccc21 | 0.81 | 0.39 | 51.8 | 25.3 | 52.5 | – | – | 47.9 |
| CC(C)c1scnc1NC(=O)C1CCOc2ccc(Cl)cc21 (stereo not drawn) | 1 | 0.99 | – | 10 | 6.85 | – | 0 | – |
| O=C(NCc1cccnn1)Nc1cccc(OCCN2CCOCC2)c1 | 1 | 0.99 | – | 1.16 | 1.22 | – | 0 | 0 |
| CC1(C)Cc2cccc(OCCNC(=O)c3cc(=O)[nH]c4cc(F)ccc34)c2O1 | 0.97 | 0.97 | – | 36.7 | 69.9 | – | 13.8 | – |
| CCCN(CC1COc2ccccc2O1)C(=O)c1cc(=O)[nH]c2ccc(Cl)cc12 (stereo not drawn) | 0.98 | 0.89 | – | -8.21 | -15.6 | – | 0 | – |
